# Data published in patent publication US11061017B2, “High throughput and functional screening method for muscle related disorders and biological processes” (CYTOO, priority 2015, dated 2021).
# Legend:
# [1] = system: myotubes from healthy donor; experiment: Inhibition of calcium release after acetylcholine or 4-chloro-m-cresol induction (Fluo-4); assay type: cell-based, human; conditions: tubocurarine 100 μM, succinylcholine 25 μM; for effect on 4-chloro-m-cresol induction of calcium release: 4-chloro-m-cresol 400 μM induction; for decrease of relative fluorescence intensity after acetylcholine induction: acetylcholine 20 μM induction, inhibitor added 15 minutes before, verapamil, nifedipine, nicardipine 40 μM
# Experimental: (§1) As myotube shortening can also take origin from compound toxicity, physiological cues of myotube contraction need to be validated. Hit validation is performed using a secondary assay estimating the level of calcium release to myotube cytoplasm. Myotubes differentiated from donors are cultured during 5 days and stained with a calcium sensitive florescent probe Fluo-4 (2 μM) in a dedicated buffer (145 mM NaCl, 5 mM KCl, 1 mM CaCl2, 1 mM MgCl2, 5.6 mM glucose, 10 mM Hepes, pH 7.4). A single compound is added to cultured myotubes and a time-lapse acquisition is performed during 30 seconds (Eclipse-Ti, Nikon), by taking a picture each second, to follow the increase in fluorescence intensity of the probe due to calcium entry into the cytoplasm. After fluorescence background removal, a relative fluorescence intensity is calculated in the whole myotubes for each timepoint, normalizing to the first value set up at 100%.
# Myoblasts are differentiated during 5 days in culture, then potential inhibitors are added in calcium buffer 15 minutes before an acethycholine treatment. […] Moreover mode of action characterization can be optimized by comparing a compound effect on both acethycholine and 4-chloro-m-cresol inductions. […] Even if a time-lapse method is described here using a classical widefield microscope, this embodiment of the invention is fully compatible with kinetic plate readers systems allowing automated calcium flow measurements, including the Hamamatsu FDSS.
# [2] = system: myotubes from DMD donors; experiment: DMD myotube morphology rescue assay; assay type: cell-based, human; conditions: for increase of fusion index in DMD myotubes / increase of tube number in DMD myotubes: prednisone 500 nM, deflazacort 50 nM
# Experimental: Using previously described protocol, human primary myoblasts, are cultured on fibronectin coated surfaces within growth medium during 24 hours. Then cells are cultured within differentiation medium (DMEM/F12, 2% Horse Serum, 0.5% P/S) for 24 hours. Therapeutic drug candidates are added and myotubes are then cultured during 96 hours. Cells are fixed and an immunostaining is realized against troponin T and nuclei. Images are acquired using an Operetta high content imaging system (PerkinElmer). Automated image processing was been developed by the inventors using the Acapella software library (PerkinElmer).
# [3] = system: myotubes differentiated from healthy donors (human primary myoblasts HSMM, Lonza); experiment: Myotube shortening assay (contraction induction, troponin T immunostaining, image analysis); assay type: cell-based; conditions: 4-chloro-m-cresol 1.5 mM, 3 minutes
# Experimental: Human primary myoblasts (HSMM, Lonza) are cultured on fibronectin coated surfaces within growth medium (Lonza SkGM™-2 cell culture Kit) during 24 hours. Then cells are cultured within differentiation medium (DMEM/F12, 2% Horse Serum, 0.5% P/S) for 5 days. Compounds (4-chloro-m-cresol, 1.5 mM) are added to myotubes during 3 minutes. Cells are fixed and an immunostaining is realized against troponin T and nuclei. Images are acquired using an Operetta high content imaging system (PerkinElmer). Automated image segmentation and analysis methods has been developed by the inventors using the Acapella software library (PerkinElmer). Then, objects are analyzed to extract basic parameters such as myotube count, nuclei count, myotube morphology (including their length, width, area), fusion index (through the percentage nuclei embedded within myotubes). However, the main descriptor of myotube shortening is the quantification of the number of spots, which are objects obtained due to myotube detachment from the culture device and subsequent folding of at least one extremity of the myotube on itself (FIG. 2B, right). Taking said parameters into account, aberrant myotubes are removed. An advanced descriptor is additionally measured, as the number of myotubes encompassing a length lower than 470 μm. […] As myotubes treatment with 4-chloro-m-cresol induces 25% decrease in tube area, and 50% increase in staining intensity readouts, the use of spot number quantification largely increases the assay window (1000%) with a reduced variability, ensuring a full compatibility of the assay with compounds screening (Z′-factors higher than 0.7).
# [4] = system: myotubes differentiated from healthy donors; experiment: Calcium release assay in myotubes (Fluo-4 time-lapse), inducers; assay type: cell-based, human; conditions: acetylcholine 20 μM, caffeine 10 mM, IGF-1 37 nM, 30 seconds time-lapse
# Experimental: as §1
# [5] = system: myotubes from a healthy donor with chemically induced atrophy; experiment: Atrophy induction and atrophy rescue assay (muscle disuse or wasting model); assay type: cell-based, human; conditions: for reduction of myotube area (atrophy induction) / rescue of atrophy induced by dexamethasone: dexamethasone 100 μM; for reduction of myotube area (atrophy induction) / rescue of atrophy induced by myostatin: myostatin 4.8 nM; for reduction of myotube area (atrophy induction) / rescue of atrophy induced by IL1-β: IL1-β 1.16 nM; for reduction of myotube area (atrophy induction) / rescue of atrophy induced by TNF-α: TNF-α 115 pM; for reduction of myotube area (atrophy induction): 96 hours; for rescue of atrophy induced by IL1-β / rescue of atrophy induced by TNF-α / rescue of atrophy induced by dexamethasone / rescue of atrophy induced by myostatin: IGF-1 18.75 nM, trichostatin A 300 nM
# Text: Another possible application is to mimic muscle wasting disorders (cachexia, sarcopenia) by chemically inducing atrophy on myotubes from healthy donors and then to screen compounds potentially rescuing the atrophic phenotype. As patients suffering from a large decrease in muscle mass, primary myoblast samples or myofibers can't be collected for ethical reasons and artificial in vitro strategies are necessary. Nonetheless, signaling pathways impacted in cachexia and sarcopenia are well described in the literature implicating three major cascades: glucocorticoid, Smad2/3 and the NF-κB pathway. Molecules known to reproduce these molecular mechanisms can therefore be used to simulate pathological myotubes. For example, glucocorticoid pathway can be mimicked by dexamethasone treatment, Smad2/3 pathway by myostatin and TGF-β treatments, and NF-κB pathway by IL1-β and TNF-α treatments.
# To do so, human primary myoblasts (HSMM, Lonza), from a healthy donor, are cultured on fibronectin coated surfaces within growth medium (Lonza SkGM™-2 cell culture Kit) during 24 hours. Then cells are cultured within differentiation medium (DMEM/F12, 2% Horse Serum, 0.5% P/S) for 24 hours. Candidates with potential rescue effect are added to the forming myotubes 15 minutes before the atrophic inducer. Then myotubes are cultured during 96 hours. Cells are fixed and an immunostaining is realized against troponin T and nuclei. Images are acquired using an Operetta high content imaging system (PerkinElmer). Automated image processing has been developed by the inventors using the Acapella software library (PerkinElmer).
# [6] = system: myotubes differentiated from healthy donors; experiment: Morphology assay (myotube area and nuclei count, dose response); assay type: cell-based, human; conditions: 96 hours, compared to untreated control
# Experimental: Human primary myoblasts (HSMM, Lonza), from a healthy donor, are cultured on fibronectin coated surfaces within growth medium (Lonza SkGM™-2 cell culture Kit) during 24 hours. Then cells are cultured within differentiation medium (DMEM/F12, 2% Horse Serum, 0.5% P/S) for 24 hours. Compounds are added to the forming myotubes during 96 hours. Cells are fixed and an immunostaining is realized against troponin T and nuclei. Images are acquired using an Operetta high content imaging system (PerkinElmer).
# In order to characterize compounds mode of action on the myotube model (including myoblasts differentiation, myotube maturation, myotube hypertrophy, myotube atrophy, or cell viability), automated image segmentation and analysis methods has been developed by the inventors using the Acapella software library (PerkinElmer).
# First, customized segmentations of myotubes and nuclei are performed.
# Second, objects are analyzed to extract basic parameters such as myotube count, nuclei count, myotube morphology (including their length, width, area, and orientation), fusion index (through the percentage nuclei within myotubes). Taking said parameters into account, aberrant myotubes are removed.
# [7] = system: myotubes differentiated from myoblasts of healthy donors; experiment: Glucose metabolism assay (Glucose Uptake Colorimetric Assay Kit); assay type: cell-based, human
# Experimental: (§2) Human primary myoblasts from a healthy or a type I diabetic donor, are cultured on fibronectin coated surfaces within growth medium during 24 hours. Then cells are cultured within differentiation medium (DMEM/F12, 2% Horse Serum, 0.5% P/S) for 24 hours. Therapeutic drug candidates are added and myotubes are then cultured during 96 hours. Compound effect on glucose metabolism is performed by using the indications provided by the manufacturer (Glucose Uptake Colorimetric Assay Kit, Sigma).
# [8] = system: myotubes from healthy and type I diabetes donors; experiment: Morphology of myotubes from healthy and type I diabetes donors; assay type: cell-based, human; conditions: insulin 10 μM
# Experimental: as §2
# FIG. 10 is a quantification of some relevant morphological parameters, as tube number, fusion index, tube area tube width, of myotubes from healthy and type I diabetes donors, cultured in control and insulin (10 μM) conditions according to the invention. […] This illustrates the specificity of metabolisms assays on compounds detection and the complementarity of the approaches to detect new drugs rescuing specifically metabolic disorders.
compound,measurement,setting,value
"COc1cc2c3cc1Oc1cc(ccc1O)C[C@@H]1c4c(cc(OC)c(O)c4Oc4ccc(cc4)C[C@@H]3N(C)CC2)CC[N+]1(C)C [Tubocurarine, tubocurarine]",effect on 4-chloro-m-cresol induction of calcium release,[1],0%
same,decrease of relative fluorescence intensity after acetylcholine induction,[1],96%
COC(=O)C1=C(C)NC(C)=C(C(=O)OCCN(C)Cc2ccccc2)C1c1cccc([N+](=O)[O-])c1 (stereo not drawn) [nicardipine],decrease of relative fluorescence intensity after acetylcholine induction,[1],91%
CC(=O)OCC(=O)[C@@]12N=C(C)O[C@@H]1C[C@H]1[C@@H]3CCC4=CC(=O)C=C[C@]4(C)[C@H]3[C@@H](O)C[C@@]12C [deflazacort],increase of fusion index in DMD myotubes,[2],59%
same,increase of tube number in DMD myotubes,[2],54%
Cc1cc(O)ccc1Cl [4-chloro-m-cresol],"spot number quantification, assay window",[3],1000%
same,decrease in tube area,[3]; myotubes cultured 5 days,25%
same,increase in staining intensity,[3]; troponin T staining,50%
Cn1c(=O)c2c(ncn2C)n(C)c1=O [caffeine],increase of relative fluorescence intensity (calcium release) compared to steady state level,[4],55%
TNF-α,reduction of myotube area (atrophy induction),[5],55%
"CC(=O)OCC[N+](C)(C)C [acethylcholine, acetylcholine]",increase of relative fluorescence intensity (calcium release) compared to steady state level,[4],305%
C[N+](C)(C)CCOC(=O)CCC(=O)OCC[N+](C)(C)C [succinylcholine],effect on 4-chloro-m-cresol induction of calcium release,[1],−30%
same,decrease of relative fluorescence intensity after acetylcholine induction,[1],94%
"TGF-β: atrophic reference compound, Smad2/3 pathway",effect on myotube area,[6],atrophic
same,effect on nuclei count,[6],without nuclei count alteration
C[C@@H]1C[C@H]2[C@@H]3CCC4=CC(=O)C=C[C@]4(C)[C@@]3(F)[C@@H](O)C[C@]2(C)[C@@]1(O)C(=O)CO [dexamethasone],reduction of myotube area (atrophy induction),[5],60%
"IL1-β: atrophy inducer, NF-κB pathway",reduction of myotube area (atrophy induction),[5],35%
CC(/C=C/C(=O)NO)=C\[C@@H](C)C(=O)c1ccc(N(C)C)cc1 [trichostatin A],effect on myotube area,[6],atrophy/hypertrophy biphasic effects
same,rescue of atrophy induced by IL1-β,[5],54%
same,rescue of atrophy induced by TNF-α,[5],100%
same,rescue of atrophy induced by dexamethasone,[5],175%
same,rescue of atrophy induced by myostatin,[5],71%
IGF-1: hypertrophic reference compound,effect on myotube area,[6],hypertrophic
same,effect on nuclei count,[6],without nuclei count alteration
same,increase of relative fluorescence intensity (calcium release) compared to steady state level,[4],20%
same,rescue of fusion index in DMD myotubes,"[2]; IGF-1 37 nM, 96 hours",204%
same,rescue of myotube width in DMD myotubes,"[2]; IGF-1 37 nM, 96 hours",15%
same,rescue of tube number in DMD myotubes,"[2]; IGF-1 37 nM, 96 hours",109%
same,rescue of atrophy induced by IL1-β,[5],85%
same,rescue of atrophy induced by TNF-α,[5],89%
same,rescue of atrophy induced by dexamethasone,[5],275%
same,rescue of atrophy induced by myostatin,[5],71%
same,effect on glucose uptake,[7]; IGF-1 37 nM,no effect
Insulin,"effect on myotube morphology (tube number, fusion index, tube area, tube width)",[8],does not modify myotube morphology
same,increase of glucose metabolism,[7]; insulin 10 μM,67%
"myostatin: atrophic reference compound, Smad2/3 pathway",effect on nuclei count,[6],decrease in nuclei count
same,reduction of myotube area (atrophy induction),[5],30%
"C[C@]12C=CC(=O)C=C1CC[C@@H]1[C@@H]2C(=O)C[C@@]2(C)[C@H]1CC[C@]2(O)C(=O)CO [Prednisone, prednisone]",increase of fusion index in DMD myotubes,[2],28%
same,increase of tube number in DMD myotubes,[2],20%
